Data: US20010001095A1, “Method for treating plants” (University of Maryland Eatern Shore, priority 1996, published 2001)
Marks after values point to notes of the source that are not given here.

Tests used:
[1] = test system: soybean (Glycine max (L.) Merr. cv. 'Corsica'); assay: Field experiments: foliar applications on soybean, seed yield by weight; type: in vivo
Description: To test the effects of foliar applications of methanol on soybean (Glycine max (L.) Merr. cv. ‘Corsica’ (maturity group IV)), field experiments were conducted over three years. In the first year, methanol at 0, 62.5 and 125 liters×ha^−1 was combined with urea nitrogen at 0, 12.5 and 25 kg×ha^−1 and sprayed with distilled water in a total volume of 500 liters×ha^−1 on test plants at the R5 stage of development. Latron B-1956 (Rohm and Haas) surfactant at 0.1% was included in all treatments. Treatments were applied from a knapsack sprayer in a randomized complete block design with four replications. Test blocks measured 5m×1.52m (7.6m^2). Plants were harvested by hand, threshed, and seed yield determined by weight. All seed weights are reported at 13% moisture content. […] To test whether PPFMS applied to leaves can substitute for methanol, spray applications of the bacterial alone and in combination with methanol were included in field experiments in the third year. […] The bacteria used in these treatments were isolated from soybean seed coat on plates of AMS medium. From a single bacterial colony, a liquid culture in the same medium was established and used to inoculate 12 liter batches of the bacteria in a Microferm fermentor (New Brunswick Scientific). Cells were harvested by centrifugation and resuspended in distilled water for application to plants in the field.

[2] = test system: soybean; assay: Greenhouse experiment: methanol sprayed on soybean plants from cured (PPFMs absent) or untreated (PPFMs present) seeds, plant dry weight; type: in vivo; conditions: for Mean dry weight +/− SD: methanol 0.5 ml per plant, harvested 2 weeks after spraying; for % gain over controls (dry weight): vs zero-time control
Description: Application of PPFMs to plants was performed in accordance with the methods detailed in U.S. Pat. No. 5,512,069. Application of methanol to plants was performed in accordance with U.S. Patent No. 5,532,204.
Soybeans were treated with dry heat before planting to lower the population of PPFMs on them (see U.S. Pat. No. 5,512,069). Untreated seeds served as controls.
To test whether the presence of PPFM bacteria is required for foliar applications of methanol to be effective, greenhouse experiments were conducted. Seeds of soybean were cured of their PPFM bacteria with dry heat as previously described (Holland et al, 1992, Plant Physiol 98:942-948)). Cured and untreated seeds wee then plated in the greenhouse in a soil-less potting medium (Pro-Mix BX), Premier Horticulture Inc.). During germination, and while the seedlings established themselves, all plants were watered freely. After 4 weeks, both cured and untreated plants were divided into two groups (each group consisting of approximately 10 pots of 5 plants). One group of cured seedlings and one group of untreated seedlings were maintained as before under freely-watered conditions. […] After 2 weeks, half of the plants in each test group were harvested and dried to constant weight (a zero-time control). The remaining plants were sprayed with methanol (0.5 ml per plant) from an atomizer and were allowed to continue growing under their respective watering regimes for an additional 2 weeks. At the end of this period, all remaining plants were harvested and dried to constant weight.

[3] = test system: C3 crop plants; conditions: foliar sprays of aqueous (10-50%) methanol, arid environments; cited from earlier work
[4] = second year, M1 = 62.5 liters × ha^−1 methanol, N1 = 12.5 kg × ha^−1 urea
[5] = non-stressed (freely watered), PPFMs present
[6] = stress (wilting) conditions, PPFMs present

| Structure (SMILES) | Yield (seed yield) ([1]; first year, M2N0: 125 liters × ha^−1 methanol, 0 urea, sprayed at R5) | Yield (seed yield) [1, 4] | effect of methanol application on plant dry weight (a measure of yield) ([2]; non-stressed (freely watered) conditions, regardless of whether PPFMs are present) | Mean dry weight +/− SD ([2]; non-stressed (freely watered), PPFMs absent (cured seeds)) | % gain over controls (dry weight) ([2]; non-stressed (freely watered), PPFMs absent (cured)) | Mean dry weight +/− SD [2, 5] | % gain over controls (dry weight) [2, 5] | growth (increase in plant dry weight) ([2]; stress (wilting) conditions, only when PPFMs are present) | Mean dry weight +/− SD ([2]; stress (wilting) conditions, PPFMs absent (cured seeds)) | % gain over controls (dry weight) ([2]; stress (wilting) conditions, PPFMs absent (cured)) | Mean dry weight +/− SD [2, 6] | % gain over controls (dry weight) [2, 6] | growth and yield [3] | Yield (seed yield) ([1]; first year, M0N1: 0 methanol, 12.5 kg × ha^−1 urea, sprayed at R5) | Yield (seed yield) ([1]; first year, M0N2: 0 methanol, 25 kg × ha^−1 urea, sprayed at R5) |
| --- | --- | --- | --- | --- | --- | --- | --- | --- | --- | --- | --- | --- | --- | --- | --- |
| CO [methanol] | 2.28 | 2.4* | does not affect plant dry weight | 5.03 ± 1.19 g | 80% | 6.85 ± 1.69 g | 78% | improves growth | 2.69 ± 0.65 g | 6% | 4.64 ± 0.72 g | 65% | increased growth and yield |  |  |
| NC(N)=O [urea] |  | 2.4 |  |  |  |  |  |  |  |  |  |  |  | 2.18 | 2.15 |
